The source made the active and inactive calls. No cut-off for these calls is given here.
Columns and labels:
[1] = Tmax in ICR mouse at 3 mg/kg, po measured upto 24 hrs by LC-MS analysis; format: ADME, organism-based; settings: in vivo
[2] = AUC(0 to t) in ICR mouse at 1 mg/kg, iv measured upto 24 hrs by LC-MS analysis; format: ADME, organism-based; design: route intravenous, dose 1 mg/kg, time <=24; settings: in vivo
[3] = Clearance in ICR mouse at 1 mg/kg, iv measured upto 24 hrs by LC-MS analysis; format: ADME, organism-based; settings: in vivo
[4] = biological target: Tyrosine-protein kinase Mer (Homo sapiens, UniProt Q12866); assay: Inhibition of recombinant human MER (557 to 882 residues) using GGMEDIYFEFMGG as substrate incubated for 40 mins in presence of [gamma-33ATP by scintillation counting based radiometry assay
[5] = biological target: ALK tyrosine kinase receptor (Homo sapiens, UniProt Q9UM73); assay: Inhibition of human ALK (1058 to end residues) using KKKSPGEYVNIEFG as substrate incubated for 40 mins in presence of [gamma-33ATP] by scintillation counting based radiometry assay
[6] = biological target: Vascular endothelial growth factor receptor 1 (Homo sapiens, UniProt P17948); assay: Inhibition of recombinant human FLT1 (783 to end residues) using KKKSPGEYVNIEFG as substrate incubated for 40 mins in presence of [gamma-33ATP] by scintillation counting based radiometry assay
[7] = biological target: Platelet-derived growth factor receptor alpha (Homo sapiens, UniProt P16234); assay: Inhibition of human PDGFRalpha (550 to end residues) using poly(Glu, Tyr) 4:1 as substrate measured after 40 mins in presence of [gamma33P]ATP by scintillation counting based radiometry assay
[8] = biological target: Receptor-type tyrosine-protein kinase FLT3 (Homo sapiens, UniProt P36888); assay: Inhibition of recombinant human FLT3 (564 to end residues) using EAIYAAPFAKKK as substrate incubated for 40 mins in presence of [gamma-33ATP] by scintillation counting based radiometry assay
[9] = biological target: Epidermal growth factor receptor (Homo sapiens, UniProt P00533); assay: Inhibition of recombinant human EGFR (696 to end residues) using poly(Glu, Tyr) 4:1 as substrate incubated for 40 mins in presence of [gamma-33ATP] by scintillation counting based radiometry assay
[10] = biological target: Proto-oncogene tyrosine-protein kinase Src (Homo sapiens, UniProt P12931); assay: Inhibition of recombinant human C-Src using KVEKIGEGTYGVVYK as substrate incubated 40 mins in presence of [gamma-33ATP] by scintillation counting based radiometry assay
[11] = biological target: Insulin-like growth factor 1 receptor (Homo sapiens, UniProt P08069); assay: Inhibition of human IGF1R (959 to end residues) using KKKSPGEYVNIEFG as substrate after 40 mins in presence of [gamma-33ATP] by scintillation counting based radiometry assay
[12] = biological target: Mitogen-activated protein kinase 1 (Homo sapiens, UniProt P28482); assay: Inhibition of human full length recombinant ERK2 using myelin basic protein as substrate incubated for 40 mins in presence of [gamma33P-ATP] by radiometric scintillation counting analysis
[13] = biological target: Dual specificity mitogen-activated protein kinase kinase 1 (Homo sapiens, UniProt Q02750); assay: Inhibition of recombinant human MEK1 using inactive MAPK2 as substrate incubated for 40 mins in presence of [gamma-33ATP] by scintillation counting based radiometry assay
[14] = biological target: Proto-oncogene tyrosine-protein kinase receptor Ret (Homo sapiens, UniProt P07949); assay: Inhibition of recombinant human Ret (658 to end residues) using KKKSPGEYVNIEFG as substrate incubated for 40 mins in presence of [gamma33P]ATP by scintillation counting based radiometry assay
[15] = biological target: Ribosomal protein S6 kinase alpha-1 (Homo sapiens, UniProt Q15418); assay: Inhibition of recombinant full length human Rsk1 using KKKNRTLSVA as substrate incubated for 40 mins in presence of [gamma33P]ATP by scintillation counting based radiometry assay
[16] = biological target: Mitogen-activated protein kinase kinase kinase 20 (Homo sapiens, UniProt Q9NYL2); assay: Inhibition of recombinant full-length human ZAK using MBP as substrate incubated for 40 mins in presence of [gamma33P]ATP by scintillation counting based radiometry assay
CDK2/Cyclin A2 = CDK2/Cyclin A2 (Homo sapiens, UniProt P24941); assay: Inhibition of full length human recombinant CDK2/Cyclin A using histone H1 as substrate incubated for 40 mins in presence of [gamma-33ATP] by radiometric scintillation counting analysis; format: protein-complex assay
CDK12/Cyclin K = CDK12/Cyclin K (Homo sapiens, UniProt Q9NYV4); assay: Inhibition of recombinant full length human CDK12/CyclinK using RSRSRSRSRSRSR as substrate incubated for 40 mins in presence of [gamma-33ATP] by scintillation counting based radiometry assay; format: protein-complex assay
[17] = biological target: PI3-kinase p110-delta/p85-alpha (Homo sapiens, UniProt O00329); assay: Inhibition of recombinant human full length PI3K p110delta/p85a using phosphatidylinositol-4, 5-bisphosphate as substrate incubated for 40 mins in presence of [gamma33P]ATP by scintillation counting based radiometry assay; format: protein-complex assay
[18] = biological target: Hepatocyte growth factor receptor (Homo sapiens, UniProt P08581); assay: Inhibition of MET signaling in human MKN45 cells assessed as reduction in phosphorylation of AKT after 2 hrs by Western blotting analysis; format: cell-based; settings: MKN-45, dose 10-100 nM
NCI-H1299 = assay: Antiproliferative activity against human NCI-H1299 cells incubated for 72 hrs by SRB or CCK8 assay; format: functional, cell-based; settings: NCI-H1299, 72 h
SNU-449 = assay: Antiproliferative activity against human SNU-449 cells at 5 to 125 uM incubated for 72 hrs by SRB or CCK8 assay; format: functional, cell-based; settings: dose 5-125 µM

CDK12/Cyclin K, sequence (O75909 whole entry): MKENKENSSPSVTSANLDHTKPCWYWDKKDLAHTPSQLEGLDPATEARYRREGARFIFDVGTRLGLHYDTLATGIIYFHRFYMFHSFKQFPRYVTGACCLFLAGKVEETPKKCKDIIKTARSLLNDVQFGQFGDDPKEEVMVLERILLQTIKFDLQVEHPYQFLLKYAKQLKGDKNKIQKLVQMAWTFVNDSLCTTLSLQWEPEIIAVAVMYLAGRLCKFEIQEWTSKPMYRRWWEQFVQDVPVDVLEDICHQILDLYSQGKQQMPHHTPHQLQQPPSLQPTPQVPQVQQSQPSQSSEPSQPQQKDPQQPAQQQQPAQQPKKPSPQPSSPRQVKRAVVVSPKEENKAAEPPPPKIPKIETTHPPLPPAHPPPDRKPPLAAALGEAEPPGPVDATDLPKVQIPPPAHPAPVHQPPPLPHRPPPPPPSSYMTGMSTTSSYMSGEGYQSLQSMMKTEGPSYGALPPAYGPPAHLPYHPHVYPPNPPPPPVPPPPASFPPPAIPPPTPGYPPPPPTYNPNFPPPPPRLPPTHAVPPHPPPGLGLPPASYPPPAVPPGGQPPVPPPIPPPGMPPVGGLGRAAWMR
CDK12/Cyclin K, sequence (Q9NYV4 whole entry): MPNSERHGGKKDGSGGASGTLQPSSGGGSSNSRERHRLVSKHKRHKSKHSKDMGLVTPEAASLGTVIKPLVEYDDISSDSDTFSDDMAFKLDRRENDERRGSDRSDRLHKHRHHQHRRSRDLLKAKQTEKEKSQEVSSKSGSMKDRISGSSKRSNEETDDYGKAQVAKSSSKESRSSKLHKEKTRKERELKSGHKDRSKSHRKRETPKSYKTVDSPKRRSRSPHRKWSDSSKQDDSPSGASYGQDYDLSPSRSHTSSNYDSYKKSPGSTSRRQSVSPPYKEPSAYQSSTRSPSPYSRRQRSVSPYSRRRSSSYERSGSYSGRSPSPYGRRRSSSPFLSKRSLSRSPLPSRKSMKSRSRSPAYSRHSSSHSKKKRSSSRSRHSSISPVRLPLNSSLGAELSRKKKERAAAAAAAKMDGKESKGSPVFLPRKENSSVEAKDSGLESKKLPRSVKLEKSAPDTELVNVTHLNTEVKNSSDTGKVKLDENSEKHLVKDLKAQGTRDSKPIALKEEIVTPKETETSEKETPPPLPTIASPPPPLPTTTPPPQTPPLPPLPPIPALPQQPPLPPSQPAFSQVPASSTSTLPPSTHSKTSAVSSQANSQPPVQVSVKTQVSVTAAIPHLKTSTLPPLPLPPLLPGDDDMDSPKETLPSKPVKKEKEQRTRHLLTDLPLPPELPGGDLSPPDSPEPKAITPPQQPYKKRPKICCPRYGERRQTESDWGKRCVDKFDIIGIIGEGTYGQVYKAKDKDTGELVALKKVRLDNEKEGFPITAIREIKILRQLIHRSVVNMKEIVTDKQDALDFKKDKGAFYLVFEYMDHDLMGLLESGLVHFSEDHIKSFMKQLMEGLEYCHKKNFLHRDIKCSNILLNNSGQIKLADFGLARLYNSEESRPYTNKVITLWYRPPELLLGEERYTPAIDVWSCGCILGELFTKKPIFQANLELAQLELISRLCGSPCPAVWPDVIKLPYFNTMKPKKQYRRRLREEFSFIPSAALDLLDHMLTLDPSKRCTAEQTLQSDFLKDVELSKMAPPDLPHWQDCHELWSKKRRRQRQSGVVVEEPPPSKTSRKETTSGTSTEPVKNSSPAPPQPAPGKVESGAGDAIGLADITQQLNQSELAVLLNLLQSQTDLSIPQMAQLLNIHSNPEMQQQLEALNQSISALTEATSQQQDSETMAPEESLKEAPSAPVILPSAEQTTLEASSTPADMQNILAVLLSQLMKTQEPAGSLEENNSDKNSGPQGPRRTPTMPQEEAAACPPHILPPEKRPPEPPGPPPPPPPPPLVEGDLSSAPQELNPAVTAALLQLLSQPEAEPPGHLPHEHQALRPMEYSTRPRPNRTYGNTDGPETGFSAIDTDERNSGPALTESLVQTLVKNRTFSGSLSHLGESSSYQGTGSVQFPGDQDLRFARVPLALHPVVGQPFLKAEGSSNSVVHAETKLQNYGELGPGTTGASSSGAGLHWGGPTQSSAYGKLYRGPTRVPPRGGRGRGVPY
Tyrosine-protein kinase Mer, sequence (Q12866 whole entry, the tested form may be a part): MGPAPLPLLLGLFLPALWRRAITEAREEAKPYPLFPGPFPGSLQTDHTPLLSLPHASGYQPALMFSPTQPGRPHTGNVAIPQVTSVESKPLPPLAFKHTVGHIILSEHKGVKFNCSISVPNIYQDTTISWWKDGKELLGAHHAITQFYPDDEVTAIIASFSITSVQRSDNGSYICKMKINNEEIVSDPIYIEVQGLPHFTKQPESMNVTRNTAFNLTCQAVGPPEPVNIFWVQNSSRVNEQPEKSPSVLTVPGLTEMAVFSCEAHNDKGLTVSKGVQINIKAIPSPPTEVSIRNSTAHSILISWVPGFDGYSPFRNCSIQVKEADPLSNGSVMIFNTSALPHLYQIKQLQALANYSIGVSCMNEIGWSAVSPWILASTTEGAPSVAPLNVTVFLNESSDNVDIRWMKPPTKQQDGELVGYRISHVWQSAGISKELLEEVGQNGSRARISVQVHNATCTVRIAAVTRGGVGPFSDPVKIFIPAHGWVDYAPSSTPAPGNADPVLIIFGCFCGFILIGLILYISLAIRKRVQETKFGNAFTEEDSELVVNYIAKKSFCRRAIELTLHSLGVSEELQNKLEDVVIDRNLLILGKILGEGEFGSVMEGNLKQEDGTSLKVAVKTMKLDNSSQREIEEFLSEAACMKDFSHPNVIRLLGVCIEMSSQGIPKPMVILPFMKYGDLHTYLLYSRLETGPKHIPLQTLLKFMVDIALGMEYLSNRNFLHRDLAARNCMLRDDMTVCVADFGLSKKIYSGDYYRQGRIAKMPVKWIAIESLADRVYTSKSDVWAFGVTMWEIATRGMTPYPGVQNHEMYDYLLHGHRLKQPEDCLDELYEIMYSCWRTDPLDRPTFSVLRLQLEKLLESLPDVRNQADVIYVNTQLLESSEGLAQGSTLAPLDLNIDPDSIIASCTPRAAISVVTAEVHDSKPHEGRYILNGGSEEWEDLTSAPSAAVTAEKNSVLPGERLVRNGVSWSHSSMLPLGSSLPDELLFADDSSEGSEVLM
Proto-oncogene tyrosine-protein kinase receptor Ret, sequence (P07949 whole entry): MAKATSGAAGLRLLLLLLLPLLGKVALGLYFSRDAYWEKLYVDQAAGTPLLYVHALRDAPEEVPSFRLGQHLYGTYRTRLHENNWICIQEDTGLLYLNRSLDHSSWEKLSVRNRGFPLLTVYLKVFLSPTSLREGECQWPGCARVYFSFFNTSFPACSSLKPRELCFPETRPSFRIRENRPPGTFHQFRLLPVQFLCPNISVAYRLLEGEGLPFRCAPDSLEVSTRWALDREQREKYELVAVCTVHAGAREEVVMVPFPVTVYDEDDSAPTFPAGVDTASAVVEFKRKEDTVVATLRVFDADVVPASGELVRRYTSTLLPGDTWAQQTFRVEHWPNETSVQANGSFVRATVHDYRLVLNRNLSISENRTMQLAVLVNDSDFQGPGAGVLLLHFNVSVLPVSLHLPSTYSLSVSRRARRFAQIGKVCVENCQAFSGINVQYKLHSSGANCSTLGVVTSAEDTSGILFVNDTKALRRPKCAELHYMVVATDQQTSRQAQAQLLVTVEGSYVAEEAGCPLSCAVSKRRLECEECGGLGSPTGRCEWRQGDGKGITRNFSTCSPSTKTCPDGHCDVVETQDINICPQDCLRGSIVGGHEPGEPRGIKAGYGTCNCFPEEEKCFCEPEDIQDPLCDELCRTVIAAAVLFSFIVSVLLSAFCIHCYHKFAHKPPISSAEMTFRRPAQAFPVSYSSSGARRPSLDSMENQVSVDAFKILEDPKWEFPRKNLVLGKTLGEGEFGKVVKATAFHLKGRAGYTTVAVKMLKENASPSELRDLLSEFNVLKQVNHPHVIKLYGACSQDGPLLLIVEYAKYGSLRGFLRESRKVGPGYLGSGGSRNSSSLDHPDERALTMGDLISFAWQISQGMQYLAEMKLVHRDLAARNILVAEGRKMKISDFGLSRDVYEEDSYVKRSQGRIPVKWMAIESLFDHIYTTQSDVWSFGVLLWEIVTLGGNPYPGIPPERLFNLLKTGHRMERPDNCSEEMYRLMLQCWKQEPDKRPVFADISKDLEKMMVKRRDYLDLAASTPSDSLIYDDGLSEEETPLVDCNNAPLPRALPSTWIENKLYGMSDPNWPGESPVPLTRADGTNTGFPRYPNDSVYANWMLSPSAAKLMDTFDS
Mitogen-activated protein kinase kinase kinase 20, sequence (Q9NYL2 whole entry): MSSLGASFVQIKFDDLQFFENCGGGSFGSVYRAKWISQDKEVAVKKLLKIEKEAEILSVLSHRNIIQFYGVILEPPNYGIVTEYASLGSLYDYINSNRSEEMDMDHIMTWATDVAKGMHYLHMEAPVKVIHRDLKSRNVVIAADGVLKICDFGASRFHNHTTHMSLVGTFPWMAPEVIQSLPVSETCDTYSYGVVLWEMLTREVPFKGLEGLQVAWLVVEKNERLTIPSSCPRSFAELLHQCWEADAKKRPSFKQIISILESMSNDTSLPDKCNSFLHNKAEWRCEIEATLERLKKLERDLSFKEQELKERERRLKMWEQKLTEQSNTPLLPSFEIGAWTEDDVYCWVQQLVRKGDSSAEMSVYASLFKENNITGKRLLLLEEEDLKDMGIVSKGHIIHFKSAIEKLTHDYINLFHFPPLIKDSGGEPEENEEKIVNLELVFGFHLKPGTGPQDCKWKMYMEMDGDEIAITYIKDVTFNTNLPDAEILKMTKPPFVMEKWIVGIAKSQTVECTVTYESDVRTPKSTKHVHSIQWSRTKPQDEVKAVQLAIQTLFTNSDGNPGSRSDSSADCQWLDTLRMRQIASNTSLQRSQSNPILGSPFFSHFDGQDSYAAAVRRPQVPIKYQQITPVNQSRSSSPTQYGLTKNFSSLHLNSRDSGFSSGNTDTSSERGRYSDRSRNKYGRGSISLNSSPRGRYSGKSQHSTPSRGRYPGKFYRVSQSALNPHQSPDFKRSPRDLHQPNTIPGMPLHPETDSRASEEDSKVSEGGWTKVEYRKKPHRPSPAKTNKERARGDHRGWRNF

Tmax [1]: 1.67 h
AUC(0-t) at 24 h [2]: 7010 ng·h/mL
clearance [3]: 2.29 mL/min/kg
IC50 [4]: < 10 nM
IC50 [5]: > 1000 nM
IC50 [6]: > 1000 nM
IC50 [7]: > 1000 nM
IC50 [8]: > 1000 nM
IC50 [9]: > 1000 nM
IC50 [10]: > 1000 nM
IC50 [11]: > 1000 nM
IC50 [12]: > 1000 nM
IC50 [13]: > 1000 nM
IC50 [14]: > 1000 nM
IC50 [15]: > 1000 nM
IC50 [16]: > 100 nM
IC50 (CDK2/Cyclin A2): > 1000 nM
IC50 (CDK12/Cyclin K): > 1000 nM
IC50 [17]: > 1000 nM
inhibition [18]: Dose-Dependent Effect
IC50 (NCI-H1299): > 10000 nM
Structure (SMILES): CC(C)n1cc(C(=O)Nc2ccc(Oc3ccnc(NC(=O)C4CC4)c3)c(F)c2)c(=O)n(-c2ccc(F)cc2)c1=O
Activity (SNU-449): inactive

From ChEMBL document CHEMBL4823249, “Discovery of a Pyrimidinedione Derivative as a Potent and Orally Bioavailable Axl Inhibitor” (J Med Chem, 2021)
